pEC50: −log10 of the molar value.
Tested on: HCV 1b-Con1 replicon
Test: HCV 1b-Con1 replicon assay in the presence of 5% FBS
Type: cell-based
Conditions: Hepatitis C virus

Row | Structure (SMILES) | pEC50
1 | COC(=O)N[C@H](C(=O)N1CCC[C@H]1c1nc2cc([C@H]3CC[C@H](c4cc5nc([C@@H]6CCCN6C(=O)[C@@H](NC(=O)OC)C(C)C)[nH]c5cc4F)N3c3cc(F)c(N4CCC5(CCCCC5)CC4)c(F)c3)c(F)cc2[nH]1)C(C)C [Example 4.53, methyl {(2S)-1-[(2S)-2-{5-[(2R,5R)-1-[4-(3-azaspiro[5.5]undec-3-yl)-3,5-difluorophenyl]-5-{6-fluoro-2-[(2S)-1-{(2S)-2-[(methoxycarbonyl)amino]-3-methylbutanoyl}pyrrolidin-2-yl]-1H-benzimidazol-5-yl}pyrrolidin-2-yl]-6-fluoro-1H-benzimidazol-2-yl}pyrrolidin-1-yl]-3-methyl-1-oxobutan-2-yl}carbamate] | > 10.00
2 | COC(=O)N[C@H](C(=O)N1CCC[C@H]1c1nc2c(C)c([C@H]3CC[C@H](c4ccc5[nH]c([C@@H]6CCCN6C(=O)[C@@H](NC(=O)OC)C(C)C)nc5c4C)N3c3ccc(C(C)(C)C)cc3)ccc2[nH]1)C(C)C [Example 6.7, methyl {(2S)-1-[(2S)-2-{5-[(2R,5R)-1-(4-tert-butylphenyl)-5-{2-[(2S)-1-{(2S)-2-[(methoxycarbonyl)amino]-3-methylbutanoyl}pyrrolidin-2-yl]-4-methyl-1H-benzimidazol-5-yl}pyrrolidin-2-yl]-4-methyl-1H-benzimidazol-2-yl}pyrrolidin-1-yl]-3-methyl-1-oxobutan-2-yl}carbamate] | > 10.00
3 | COC(=O)N[C@H](C(=O)N1CCC[C@H]1c1nc2cc([C@H]3CC[C@H](c4ccc5[nH]c([C@@H]6CCCN6C(=O)[C@@H](NC(=O)OC)C(C)C)nc5c4)N3c3ccc(Cl)cc3)ccc2[nH]1)C(C)C [Example 3.4, methyl {(2S)-1-[(2S)-2-{5-[(2R,5R)-1-(4-chlorophenyl)-5-{2-[(2S)-1-{(2S)-2-[(methoxycarbonyl)amino]-3-methylbutanoyl}pyrrolidin-2-yl]-1H-benzimidazol-5-yl}pyrrolidin-2-yl]-1H-benzimidazol-2-yl}pyrrolidin-1-yl]-3-methyl-1-oxobutan-2-yl}carbamate] | > 10.00
4 | CCOc1ccc(N2[C@@H](c3ccc4nc([C@@H]5CCCN5C(=O)[C@@H](NC(=O)OC)C(C)C)[nH]c4c3)CC[C@@H]2c2ccc3nc([C@@H]4CCCN4C(=O)[C@@H](NC(=O)OC)C(C)C)[nH]c3c2)cc1 [Example 4.10, methyl {(2S)-1-[(2S)-2-{6-[(2R,5R)-1-(4-ethoxyphenyl)-5-{2-[(2S)-1-{(2S)-2-[(methoxycarbonyl)amino]-3-methylbutanoyl}pyrrolidin-2-yl]-1H-benzimidazol-6-yl}pyrrolidin-2-yl]-1H-benzimidazol-2-yl}pyrrolidin-1-yl]-3-methyl-1-oxobutan-2-yl}carbamate] | > 10.00
5 | COC(=O)N[C@H](C(=O)N1CCC[C@H]1c1nc2cc(F)c([C@H]3CC[C@H](c4cc5[nH]c([C@@H]6CCCN6C(=O)[C@@H](NC(=O)OC)C(C)C)nc5cc4F)N3c3cc(F)c(N4CC(C)CC(C)C4)c(F)c3)cc2[nH]1)C(C)C (stereo partly drawn) [Example 2.16, methyl {(2S)-1-[(2S)-2-{5-[(5R)-1-[4-(3,5-dimethylpiperidin-1-yl)-3,5-difluorophenyl]-5-{6-fluoro-2-[(2S)-1-{(2S)-2-[(methoxycarbonyl)amino]-3-methylbutanoyl}pyrrolidin-2-yl]-1H-benzimidazol-5-yl}pyrrolidin-2-yl]-6-fluoro-1H-benzimidazol-2-yl}pyrrolidin-1-yl]-3-methyl-1-oxobutan-2-yl}carbamate] | > 10.00
6 | COC(=O)N[C@H](C(=O)N1CCC[C@H]1c1nc2cc([C@H]3CC[C@H](c4ccc5[nH]c([C@@H]6CCCN6C(=O)[C@@H](NC(=O)OC)C6CCCCC6)nc5c4)N3c3cc(F)c(N4CCCCC4)c(F)c3)ccc2[nH]1)C1CCCCC1 [Example 5.6, dimethyl ({(2R,5R)-1-[3,5-difluoro-4-(piperidin-1-yl)phenyl]pyrrolidine-2,5-diyl}bis{1H-benzimidazole-5,2-diyl(2S)pyrrolidine-2,1-diyl [(1S)-1-cyclohexyl-2-oxoethane-2,1-diyl]})biscarbamate] | > 10.00
7 | COC(=O)N[C@H](C(=O)N1CCC[C@H]1c1nc2cc([C@H]3CC[C@H](c4cc5nc([C@@H]6CCCN6C(=O)[C@@H](NC(=O)OC)C(C)C)[nH]c5cc4F)N3c3cc(F)c(N4CCO[C@@H](c5ccccc5)C4)c(F)c3)c(F)cc2[nH]1)C(C)C [Example 4.55, methyl {(2S)-1-[(2S)-2-{5-[(2R,5R)-1-{3,5-difluoro-4-[(2S)-2-phenylmorpholin-4-yl]phenyl}-5-{6-fluoro-2-[(2S)-1-{(2S)-2-[(methoxycarbonyl)amino]-3-methylbutanoyl}pyrrolidin-2-yl]-1H-benzimidazol-5-yl}pyrrolidin-2-yl]-6-fluoro-1H-benzimidazol-2-yl}pyrrolidin-1-yl]-3-methyl-1-oxobutan-2-yl}carbamate] | > 10.00
8 | COC(=O)N[C@H](C(=O)N1CCC[C@H]1c1nc2cc([C@H]3CC[C@H](c4cc5nc([C@@H]6CCCN6C(=O)[C@@H](NC(=O)OC)C6CCCC6)[nH]c5cc4F)N3c3cc(F)c(N4CCC(c5ccccc5)CC4)c(F)c3)c(F)cc2[nH]1)C1CCCC1 [Example 4.40, dimethyl ({(2R,5R)-1-[3,5-difluoro-4-(4-phenylpiperidin-1-yl)phenyl]pyrrolidine-2,5-diyl}bis{(6-fluoro-1H-benzimidazole-5,2-diyl)(2S)pyrrolidine-2,1-diyl[(1S)-1-cyclopentyl-2-oxoethane-2,1-diyl]})biscarbamate] | > 10.00
9 | COC(=O)N[C@H](C(=O)N1CCC[C@H]1c1nc2cc([C@H]3CC[C@H](c4ccc5nc([C@@H]6CCCN6C(=O)[C@@H](NC(=O)OC)C(C)C)[nH]c5c4)N3c3cc(F)c(N4CCC(c5ccccc5)C4)c(F)c3)ccc2[nH]1)C(C)C (stereo partly drawn) [Example 4.33, methyl {(2S)-1-[(2S)-2-{5-[(2R,5R)-1-[3,5-difluoro-4-(3-phenylpyrrolidin-1-yl)phenyl]-5-{2-[(2S)-1-{(2S)-2-[(methoxycarbonyl)amino]-3-methylbutanoyl}pyrrolidin-2-yl]-1H-benzimidazol-6-yl}pyrrolidin-2-yl]-1H-benzimidazol-2-yl}pyrrolidin-1-yl]-3-methyl-1-oxobutan-2-yl}carbamate] | > 10.00
10 | COC(=O)N[C@H](C(=O)N1CCC[C@H]1c1nc2cc([C@H]3CC[C@H](c4cc5nc([C@@H]6CCCN6C(=O)[C@@H](NC(=O)OC)C(C)C)[nH]c5cc4F)N3c3cc(F)c(N4CCC(CCCc5ccccc5)CC4)c(F)c3)c(F)cc2[nH]1)C(C)C [Example 4.26, methyl {(2S)-1-[(2S)-2-{5-[(2R,5R)-1-{3,5-difluoro-4-[4-(3-phenylpropyl)piperidin-1-yl]phenyl}-5-{6-fluoro-2-[(2S)-1-{(2S)-2-[(methoxycarbonyl)amino]-3-methylbutanoyl}pyrrolidin-2-yl]-1H-benzimidazol-5-yl}pyrrolidin-2-yl]-6-fluoro-1H-benzimidazol-2-yl}pyrrolidin-1-yl]-3-methyl-1-oxobutan-2-yl}carbamate] | > 10.00
11 | COC(=O)N[C@H](C(=O)N1CCC[C@H]1c1nc2cc([C@H]3CC[C@H](c4cc5nc([C@@H]6CCCN6C(=O)[C@@H](NC(=O)OC)C(C)C)[nH]c5cc4F)N3c3cc(F)c(N4CCC(C5CCCCC5)CC4)c(F)c3)c(F)cc2[nH]1)C(C)C [Example 4.54, methyl {(2S)-1-[(2S)-2-{5[(2R,5R)-1-[4-(4-cyclohexylpiperidin-1-yl)-3,5-difluorophenyl]-5-{6-fluoro-2-[(2S)-1-{(2S)-2-[(methoxycarbonyl)amino]-3-methylbutanoyl}pyrrolidin-2-yl]-1H-benzimidazol-5-yl}pyrrolidin-2-yl]-6-fluoro-1H-benzimidazol-2-yl}pyrrolidin-1-yl]-3-methyl-1-oxobutan-2-yl}carbamate] | > 10.00
12 | COC(=O)N[C@H](C(=O)N1CCC[C@H]1c1nc2cc(F)c([C@H]3CC[C@H](c4cc5[nH]c([C@@H]6CCCN6C(=O)[C@@H](NC(=O)OC)C6CCCC6)nc5cc4F)N3c3cc(F)c(N4CCN(c5ccc(C(F)(F)F)cc5)CC4)c(F)c3)cc2[nH]1)C1CCCC1 [Example 4.45, dimethyl ([(2R,5R)-1-(3,5-difluoro-4-{4-[4-(trifluoromethyl)phenyl]piperazin-1-yl}phenyl)pyrrolidine-2,5-diyl]bis{(5-fluoro-1H-benzimidazole-6,2-diyl)(2S)pyrrolidine-2,1-diyl[(1S)-1-cyclopentyl-2-oxoethane-2,1-diyl]})bis carbamate] | > 10.00
13 | COC(=O)N[C@H](C(=O)N1CCC[C@H]1c1nc2cc([C@H]3CC[C@H](c4cc5nc([C@@H]6CCCN6C(=O)[C@@H](NC(=O)OC)[C@@H](C)OC)[nH]c5cc4F)N3c3cc(F)c(N4CCC(C(C)(C)C)CC4)c(F)c3)c(F)cc2[nH]1)[C@@H](C)OC [Example 6.13, methyl {(2S,3R)-1-[(2S)-2-{5-[(2R,5R)-1-[4-(4-tert-butylpiperidin-1-yl)-3,5-difluorophenyl]-5-(6-fluoro-2-{(2S)-1-[N-(methoxycarbonyl)-O-methyl-L-threonyl]pyrrolidin-2-yl}-1H-benzimidazol-5-yl)pyrrolidin-2-yl]-6-fluoro-1H-benzimidazol-2-yl}pyrrolidin-1-yl]-3-methoxy-1-oxobutan-2-yl}carbamate] | > 10.00
14 | COC(=O)N[C@H](C(=O)N1CCC[C@H]1c1nc2cc([C@H]3CC[C@H](c4ccc5[nH]c([C@@H]6CCCN6C(=O)[C@@H](NC(=O)OC)C(C)C)nc5c4)N3c3cc(F)c(N4CCC(C(C)C)CC4)c(F)c3)ccc2[nH]1)C(C)C [Example 4.22, methyl {(2S)-1-[(2S)-2-{5-[(2R,5R)-1-{3,5-difluoro-4-[4-(propan-2-yl)piperidin-1-yl]phenyl}-5-{2-[(2S)-1-{(2S)-2-[(methoxycarbonyl)amino]-3-methylbutanoyl}pyrrolidin-2-yl]-1H-benzimidazol-5-yl}pyrrolidin-2-yl]-1H-benzimidazol-2-yl}pyrrolidin-1-yl]-3-methyl-1-oxobutan-2-yl}carbamate] | > 10.00
15 | COC(=O)N[C@H](C(=O)N1CCC[C@H]1c1nc2ccc([C@H]3CC[C@H](c4ccc5nc([C@@H]6CCCN6C(=O)[C@@H](NC(=O)OC)C6CC6)[nH]c5c4)N3c3ccc(C(C)(C)C)cc3)cc2[nH]1)C1CC1 [Example 4.16, dimethyl ([(2R,5R)-1-(4-tert-butylphenyl)pyrrolidine-2,5-diyl]bis{1H-benzimidazole-6,2-diyl(2S)pyrrolidine-2,1-diyl [(1S)-1-cyclopropyl-2-oxoethane-2,1-diyl]}) biscarbamate] | > 10.00

Reference: patent US20120220562A1, “Anti-Viral Compounds” (ABBOTT LABAORATORIES, priority 2011, published 2012)
